Values quoted from earlier work, collected in paper PMC12697872, “Rethinking the AI Paradigm for Solubility Prediction of Drug‑Like Compounds with Dual‐Perspective Modeling and Experimental Validation” (Advanced Science, 2025).

Conditions: discarded ambiguous entries of DrugBank database; ref DrugBank database (version 5.1.12) 24; cited from earlier work

Compound | Experimental solubility
CN(CCN1CCC(OC(=O)Nc2ccccc2-c2ccccc2)CC1)C(=O)c1ccc(CN2CCC(C(N)=O)CC2)cc1 [864750-70-9] | < 1 mg/ml mg/mL
O=C(O)c1ccc2nc(-c3cc(Cl)cc(Cl)c3)oc2c1 [594839-88-0] | >50 mg/mL

Same assay, conditions: experimental aqueous solubility as logS, sheet "DrugBank" of Supplement 2; ref DrugBank; cited from earlier work

Compound | ex_logS
CC(C)NCC(O)COc1cccc2ccccc12 (stereo not shown) [Propranolol] | -3.624
CCCCC[C@H](O)/C=C/[C@H]1[C@H](O)CC(=O)[C@@H]1C/C=C\CCCC(=O)O [Dinoprostone] | -3.783
C=CCc1ccccc1OCC(O)CNC(C)C (stereo not shown) [Alprenolol] | -2.659
CCN(CC)C(=O)N1CCN(C)CC1 [Diethylcarbamazine] | -0.4954
COc1c(C)c2c(c(O)c1C/C=C(\C)CCC(=O)OCCN1CCOCC1)C(=O)OC2 [Mycophenolate mofetil] | -4.004
CN1C(=O)CC(c2ccccc2)C1=O (stereo not shown) [Phensuximide] | -1.431
CN(C)/N=N/c1[nH]cnc1C(N)=O [Dacarbazine] | -1.6352
CCOC(=O)c1cncn1[C@H](C)c1ccccc1 [Etomidate] | -3.587
NC(=O)c1cccnc1 [Nicotinamide] | 0.6122
Cc1ccc(/C(=C\CN2CCCC2)c2ccccn2)cc1 [Triprolidine] | -3.57
COc1cc(Cc2cnc(N)nc2N)cc(OC)c1OC [Trimethoprim] | -2.861
Cn1c(=O)c2[nH]cnc2n(C)c1=O [Theophylline] | -1.389
O=C1NC(=O)C(c2ccccc2)(c2ccccc2)N1 [phenytoin] | -3.99
C[C@]1(O)CC[C@H]2[C@@H]3CCC4=CC(=O)CC[C@]4(C)[C@@]3(F)[C@@H](O)C[C@@]21C [Fluoxymesterone] | -3.698
CC(=O)CC(c1ccccc1)c1c(O)c2ccccc2oc1=O (stereo not shown) [warfarin] | -4.26
CP(=O)(O)C1=CCNCC1 [TPMPA] | -1
CO[C@@]1(NC(=O)CSCC#N)C(=O)N2C(C(=O)O)=C(CSc3nnnn3C)CS[C@@H]21 [Cefmetazole] | -3.699
Oc1ncnc2[nH]ncc12 [allopurinol] | -2.26
OC(O)C(Cl)(Cl)Cl [Chloral hydrate] | 0.6807
CC(=O)Oc1ccccc1C(=O)O [Acetylsalicylic acid] | -1.6122

Same assay, conditions: experimental aqueous solubility as logS, sheet "DrugBank"; ref DrugBank database; cited from earlier work

Compound | ex_logS
C[C@@H](N)C(=O)O [D-Alanine] | 0.2676
O=C(O)CCCC[C@@H]1SC[C@@H]2NC(=O)N[C@@H]21 [Biotin] | -3.046
COc1cc2c(c(OC)c1OC)-c1ccc(OC)c(=O)cc1[C@@H](NC(C)=O)CC2 [Colchicine] | -0.9632
CC1(C)CCC(C)(C)c2cc(Cn3cccn3)c(/C=C/c3ccc(C(=O)O)cc3)cc21 [Palovarotene] | -7.016
CCCC(CCC)C(=O)O [Valproic acid] | -2.045
CCC(C)C(C)(COC(N)=O)COC(N)=O (stereo not shown) [Mebutamate] | -2.366
O=C(O)[C@H](O)c1ccccc1 [(R)-Mandelic acid] | -0.1409
CC1=C(/C=C/C(C)=C/C=C/C(C)=C\C(=O)O)C(C)(C)CCC1 [Isotretinoin] | -4.799
O=C(OCCO)c1ccccc1O [Glycol salicylate] | -1.143
O=C(CCBr)N1CCN(C(=O)CCBr)CC1 [Pipobroman] | -2.155
CN(C)CCCN1c2ccccc2Sc2ccccc21 [Promazine] | -4.302
C[C@@H]1C[C@H]2[C@@H]3C[C@H](F)C4=CC(=O)C=C[C@]4(C)[C@@]3(F)[C@@H](O)C[C@]2(C)[C@H]1C(=O)CO [Difluocortolone] | -5.289
Nc1nnc(-c2cccc(Cl)c2Cl)c(N)n1 [Lamotrigine] | -3.178
O=C(CCCN1CC=C(n2c(=O)[nH]c3ccccc32)CC1)c1ccc(F)cc1 [Droperidol] | -4.955
O=C(O)[C@@H](O)c1ccccc1 [(S)-Mandelic acid] | 0.07541
O=C(O)Cc1ccccc1Nc1c(Cl)cccc1Cl [Diclofenac] | -5.097
CC1=C(/C=C/C(C)=C/C=C/C(C)=C/CO)C(C)(C)CCC1 [Vitamin A] | -5.63
CC(=O)OCC(=O)[C@@]1(O)CC[C@H]2[C@@H]3CCC4=CC(=O)CC[C@]4(C)[C@H]3C(=O)C[C@@]21C [Cortisone acetate] | -4.304
CC/C=C\C/C=C\C/C=C\CCCCCCCC(=O)O [alpha-Linolenic acid] | -6.351
CCOC(=O)Nc1ccc2c(c1)N(C(=O)CCN1CCOCC1)c1ccccc1S2 [Moricizine] | -5.971
Cc1oncc1C(=O)Nc1ccc(C(F)(F)F)cc1 [Leflunomide] | -4.109

Compound | ex_logS
COc1cc(C)c(/C=C/C(C)=C/C=C/C(C)=C/C(=O)O)c(C)c1C [Acitretin] | -6.651
CC(C)/N=c1\cc2n(-c3ccc(Cl)cc3)c3ccccc3nc-2cc1Nc1ccc(Cl)cc1 [Clofazimine] | -6.323
CCC1(C2=CCCCCC2)C(=O)NC(=O)NC1=O [Heptabarbital] | -3.001
COC(=O)N(C)c1c(N)nc(-c2nn(Cc3ccccc3F)c3ncccc23)nc1N [Riociguat] | -5.024
CC(=O)OCC1=C(C(=O)O)N2C(=O)[C@@H](NC(=O)Cc3cccs3)[C@H]2SC1 [Cefalotin] | -3.4
CC1=C(/C=C/C(C)=C\C=C\C(C)=C\C(=O)O)C(C)(C)CCC1 [Alitretinoin] | -5.6996
CC(C)n1c(/C=C/C(O)CC(O)CC(=O)O)c(-c2ccc(F)cc2)c2ccccc21 (stereo not shown) [Fluvastatin] | -5.952
CC1=C(/C=C/C(C)=C/C=C/C(C)=C/C=C/C=C(C)/C=C/C=C(C)/C=C/C2=C(C)CCCC2(C)C)C(C)(C)CCC1 [Beta carotene] | -5.952
CC[C@@]1(O)C(=O)OCc2c1cc1n(c2=O)Cc2cc3c(CN(C)C)c(O)ccc3nc2-1 [Topotecan] | -2.625
Cc1ccc(C(=O)c2ccc(CC(=O)O)n2C)cc1 [Tolmetin] | -3.064
NC(=O)O[C@@H](Cn1ncnn1)c1ccccc1Cl [Cenobamate] | -2.197
CCC(=O)c1ccc2c(c1)N(CC(C)N(C)C)c1ccccc1S2 (stereo not shown) [Propiomazine] | -5.875
Cc1ncc(CO)c(CO)c1O [Pyridoxine] | 0.1141
Cc1onc(-c2c(Cl)cccc2Cl)c1C(=O)N[C@@H]1C(=O)N2[C@@H]1SC(C)(C)[C@@H]2C(=O)O [Dicloxacillin] | -5.112
CN(C)CCCN1c2ccccc2CCc2ccccc21 [Imipramine] | -4.188
COC(=O)OCOc1c2n(ccc1=O)N([C@@H]1c3ccccc3SCc3c1ccc(F)c3F)[C@@H]1COCCN1C2=O [Baloxavir marboxil] | -4.581
CCOc1ccc(Nc2ccc(/C(=C3C=C/C(=[N+](/CC)Cc4cccc(S(=O)(=O)[O-])c4)C=C/3C)c3ccc(N(CC)Cc4cccc(S(=O)(=O)O)c4)cc3C)cc2)cc1 [Brilliant blue G] | -2.931
CC(=O)OCC(=O)[C@@]12N=C(C)O[C@@H]1C[C@H]1[C@@H]3CCC4=CC(=O)C=C[C@]4(C)[C@H]3[C@@H](O)C[C@@]12C [Deflazacort] | -3.612
CCCCC(=O)O [N-Valeric Acid] | -0.6289
CCN(CC)CCOC(=O)c1ccc(N)cc1Cl [Chloroprocaine] | -2.61
COc1cc2c(Nc3ccc(Br)cc3F)ncnc2cc1OCC1CCN(C)CC1 [Vandetanib] | -4.774
